Consider 38 molecules from patent US11814376B2, “Hepatitis b core protein modulators” (Assembly Biosciences, Inc., priority 2015, dated 2023).

Counter-ions that a name gives are not always drawn.

In one series the test system is AD38 cells. Put plainly: Viability of AD38 cells (Promega CellTiter-Glo). The class given is cell-based. Conditions: 10 μM compound, 6 days, CellTiter-Glo luminescence normalized to DMSO control (100%). The gist of the method:
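After 6 days of compound exposure at 37° C (compound added as 10× solution in 10% DMSO; 50,000 cells/well, collagen-coated), medium was replaced with tetracycline-free DMEM/F12, 2% FBS, 1% DMSO. CellTiter-Glo luminescence was then recorded and normalized to DMSO-treated wells as 100% viability.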

Series [1] deals with HBV viral load in AD38 cells. Put plainly: Viral load production in AD38 cells, quantitative PCR of the core sequence in supernatant. The note with it: Hepatitis B virus, 144 h, 10 μM compound, 6 days at 37° C., supernatant qPCR, relative to DMSO control; read-out: AD38 Viral Load (%) (VL with cmpd/VL in DMSO control) at 10 μM. The class given is cell-based.

As for `O=C(NCc1cnc(N2CCS(=O)(=O)CC2)s1)c1ccc2c(c1)NC(=O)c1ccccc1S2(=O)=O` [compound 1860], the “AD38 Viability Normalized Result (cmpd/DMSO %) at 10 μM” value in the series on AD38 cells was determined as 98%. For the same molecule, the activity at 10 µM in series [1] is 7.5%.
For `CS(=O)(=O)c1ccc(-c2ncc(CNC(=O)c3ccc4c(c3)NC(=O)c3ccccc3O4)s2)cc1` [compound 1861], in that order: 94% and 5.9%.
For `NS(=O)(=O)c1ccc(-c2ncc(CNC(=O)c3ccc4c(c3)NC(=O)c3ccccc3O4)s2)cc1` [compound 1862], the “AD38 Viability Normalized Result (cmpd/DMSO %) at 10 μM” value in the series with AD38 cells is recorded as 107%. For the same molecule, the activity at 10 µM in series [1] is 19.9%.
As to `CS(=O)(=O)Nc1ccc(-c2ncc(CNC(=O)c3ccc4c(c3)NC(=O)c3ccccc3O4)s2)cc1` [compound 1863], in the series on AD38 cells, the “AD38 Viability Normalized Result (cmpd/DMSO %) at 10 μM” value is on record as 106%. Further, in series [1], the activity at 10 µM was determined as 9.4%.
With `O=C(NCc1cnc(-c2ccc(N3CCCC3=O)cc2)s1)c1ccc2c(c1)NC(=O)c1ccccc1O2` [compound 1864], in the series on AD38 cells, the “AD38 Viability Normalized Result (cmpd/DMSO %) at 10 μM” value was 93%. Besides, the activity at 10 µM in series [1] was 3%.
Regarding `O=C(NCc1cnc(N2CCC(O)CC2)s1)c1ccc2c(c1)NC(=O)c1ccccc1O2` [compound 1865], the “AD38 Viability Normalized Result (cmpd/DMSO %) at 10 μM” value in the series on AD38 cells was 94%. The activity at 10 µM in series [1] worked out at 1%.
For `O=C(NCc1cnc(N2CCS(=O)(=O)CC2)s1)c1ccc2c(c1)NC(=O)c1ccccc1O2` [compound 1866], in that order: 98% and 2.9%.
For `Cc1c(C(=O)NCc2cnc(-c3ccc(C#N)cc3)s2)ccc2c1NC(=O)c1ccccc1S2(=O)=O` [compound 1877], the “AD38 Viability Normalized Result (cmpd/DMSO %) at 10 μM” value with AD38 cells is recorded as 96%. The activity at 10 µM in series [1] was found to be 0.2%.
Consider `Cc1c(C(=O)NCc2cnc(-c3ccc(C(N)=O)cc3)s2)ccc2c1NC(=O)c1ccccc1S2(=O)=O` [compound 1878, N-((2-(4-carbamoylphenyl)thiazol-5-yl)methyl)-9-methyl-11-oxo-10, 11-dihydrodibenzo [b, f] [1, 4] thiazepine-8-carboxamide 5,5-dioxide], for which the “AD38 Viability Normalized Result (cmpd/DMSO %) at 10 μM” value with AD38 cells was 103%. Further, in series [1], the activity at 10 µM was 1%.
With `O=C(NCc1cnc(-c2ccc(O)cn2)s1)c1ccc2c(c1)NC(=O)c1ccccc1S2(=O)=O` [compound 1879, N-((2-(5-hydroxypyridin-2-yl)thiazol-5-yl)methyl)-11-oxo-10, 11-dihydrodibenzo [b, f] [1, 4] thiazepine-8-carboxamide 5,5-dioxide], the “AD38 Viability Normalized Result (cmpd/DMSO %) at 10 μM” value in the series with AD38 cells is given as 104%. Further, the activity at 10 µM in series [1] stood at 7.2%.
With `O=C(NCc1cnc(-c2cc(O)ccn2)s1)c1ccc2c(c1)NC(=O)c1ccccc1S2(=O)=O` [compound 1880, N-((2-(4-hydroxypyridin-2-yl)thiazol-5-yl)methyl)-11-oxo-10, 11-dihydrodibenzo [b, f] [1, 4] thiazepine-8-carboxamide 5,5-dioxide], the “AD38 Viability Normalized Result (cmpd/DMSO %) at 10 μM” value with AD38 cells amounted to 104%. In series [1], the activity at 10 µM was determined as 6.7%.
For the molecule `N#Cc1ccc(-c2ncc(CNC(=O)c3ccc4c(c3)NC(=O)c3ccccc3S4(=O)=O)s2)nc1` [compound 1881], the “AD38 Viability Normalized Result (cmpd/DMSO %) at 10 μM” value in the series on AD38 cells came to 108%. Further, in series [1], the activity at 10 µM is 0.8%.
For `O=C(NCc1cnc(-c2nccs2)s1)c1ccc2c(c1)NC(=O)c1ccccc1S2(=O)=O` [compound 1882], in that order: 103% and 1%.
For `Nc1ccc(-c2ncc(CNC(=O)c3ccc4c(c3)NC(=O)c3ccccc3S4(=O)=O)s2)nc1` [compound 1886, N-((2-(5-aminopyridin-2-yl)thiazol-5-yl)methyl)-11-oxo-10, 11-dihydrodibenzo [b, f] [1, 4] thiazepine-8-carboxamide 5,5-dioxide], in that order: 106% and 1.5%.
For `Nc1ccnc(-c2ncc(CNC(=O)c3ccc4c(c3)NC(=O)c3ccccc3S4(=O)=O)s2)c1` [compound 1888, N-((2-(4-aminopyridin-2-yl)thiazol-5-yl)methyl)-11-oxo-10,11-dihydrodibenzo [b, f] [1, 4] thiazepine-8-carboxamide 5,5-dioxide, TFA salt], in that order: 100% and 1.2%.
For the molecule `CN(C)c1ccnc(-c2ncc(CNC(=O)c3ccc4c(c3)NC(=O)c3ccccc3S4(=O)=O)s2)c1` [compound 1889, N-((2-(4-(dimethylamino)pyridin-2-yl)thiazol-5-yl)methyl)-11-oxo-10,11-dihydrodibenzo [b, f] [1, 4] thiazepine-8-carboxamide 5,5-dioxide], the “AD38 Viability Normalized Result (cmpd/DMSO %) at 10 μM” value in the series on AD38 cells was 98%. The activity at 10 µM in series [1] was determined as 4.6%.
For `O=C(NCc1cnc(-c2nccs2)s1)c1ccc2c(c1)NC(=O)c1ccccc1O2` [compound 1893], in the series with AD38 cells, the “AD38 Viability Normalized Result (cmpd/DMSO %) at 10 μM” value came to 91%. In addition, the activity at 10 µM in series [1] came to 2%.
For `N#Cc1ccc(-c2ncc(CNC(=O)c3ccc4c(c3)NC(=O)c3cccc(F)c3S4(=O)=O)s2)cc1` [compound 1904], the “AD38 Viability Normalized Result (cmpd/DMSO %) at 10 μM” value in the series on AD38 cells was 89%. For the same molecule, the activity at 10 µM in series [1] turned out to be 0.5%.
On to `O=C(NCc1cnc(N2CCCCC2)s1)c1ccc2c(c1)NC(=O)c1ccccc1S2(=O)=O` [compound 1905], for which the “AD38 Viability Normalized Result (cmpd/DMSO %) at 10 μM” value in the series on AD38 cells stood at 109%. The activity at 10 µM in series [1] amounted to 0.3%.
Regarding `O=C1CCN(c2ncc(CNC(=O)c3ccc4c(c3)NC(=O)c3ccccc3S4(=O)=O)s2)CC1` [compound 1906], the “AD38 Viability Normalized Result (cmpd/DMSO %) at 10 μM” value with AD38 cells is listed as 89%. Further, in series [1], the activity at 10 µM was found to be 7.8%.
`O=C(NCc1cnc(N2CCCCCC2)s1)c1ccc2c(c1)NC(=O)c1ccccc1S2(=O)=O` [compound 1907]: the “AD38 Viability Normalized Result (cmpd/DMSO %) at 10 μM” value in the series with AD38 cells is 85%. For the same molecule, the activity at 10 µM in series [1] is 0.5%.
For `O=C(NCc1cnc(N2CCCCC(O)C2)s1)c1ccc2c(c1)NC(=O)c1ccccc1S2(=O)=O` (stereo not shown) [compound 1908], in that order: 94% and 7%.
For `O=C1CCCCN(c2ncc(CNC(=O)c3ccc4c(c3)NC(=O)c3ccccc3S4(=O)=O)s2)C1` [compound 1909, 11-oxo-N-((2-(3-oxoazepan-1-yl)thiazol-5-yl)methyl)-10, 11-dihydrodibenzo [b, f] [1, 4] thiazepine-8-carboxamide 5,5-dioxide], in that order: 95% and 1.3%.
On the same counts, the results for `Cc1cc2c(cc1C(=O)NCc1cnc(C(F)(F)F)s1)NC(=O)c1ccccc1S2(=O)=O` [compound 1910] are 94% and 19%.
For the molecule `Cc1cc2c(cc1C(=O)NCc1cnc(-c3ccc(C#N)cc3)s1)NC(=O)c1ccccc1S2(=O)=O` [compound 1911], in the series with AD38 cells, the “AD38 Viability Normalized Result (cmpd/DMSO %) at 10 μM” value was determined as 111%. Further, in series [1], the activity at 10 µM came out at 0.4%.
As for `N#Cc1ccc(-c2ncc(CNC(=O)c3cc4c(cc3Cl)Oc3ccccc3C(=O)N4)s2)cc1` [compound 1913], the “AD38 Viability Normalized Result (cmpd/DMSO %) at 10 μM” value in the series with AD38 cells is on record as 111%. For the same molecule, the activity at 10 µM in series [1] is 68.1%.
As for `Cc1c(C(=O)NCc2cnc(C(F)(F)F)s2)cc(Br)c2c1NC(=O)c1ccccc1S2` [compound 1914], the “AD38 Viability Normalized Result (cmpd/DMSO %) at 10 μM” value in the series on AD38 cells is given as 77%. For the same molecule, the activity at 10 µM in series [1] amounted to 120%.
For `Cc1c(C(=O)NCc2cnc(-c3ccc(C#N)cc3)s2)cc(Br)c2c1NC(=O)c1ccccc1S2` [compound 1915], in that order: 100% and 15.7%.
For `CCCN1c2ccc(C(=O)NCc3cnc(C(F)(F)F)s3)cc2NC(=O)c2ccccc21` [compound 1916], the “AD38 Viability Normalized Result (cmpd/DMSO %) at 10 μM” value in the series with AD38 cells is given as 103%. The activity at 10 µM in series [1] came out at 15.5%.
On the same counts, the results for `CCCN1c2ccc(C(=O)NCc3cnc(-c4ccc(C#N)cc4)s3)cc2NC(=O)c2ccccc21` [compound 1917] are 108% and 1.1%.
On the same counts, the results for `C=CCN1c2ccc(C(=O)NCc3cnc(C(F)(F)F)s3)cc2NC(=O)c2ccccc21` [compound 1920] are 85% and 48.8%.
On the same counts, the results for `C=CCN1c2ccc(C(=O)NCc3cnc(-c4ccc(C#N)cc4)s3)cc2NC(=O)c2ccccc21` [compound 1921] are 101% and 1.2%.
Take `CCCCN1c2ccc(C(=O)NCc3cnc(C(F)(F)F)s3)cc2NC(=O)c2ccccc21` [compound 1922]: the “AD38 Viability Normalized Result (cmpd/DMSO %) at 10 μM” value in the series on AD38 cells is listed as 39%. Besides, the activity at 10 µM in series [1] was determined as 60.3%.
Regarding `O=C(NCc1cnc(CN2CCOCC2)s1)c1ccc2c(c1)NC(=O)c1ccccc1S2(=O)=O` [compound 1927], the “AD38 Viability Normalized Result (cmpd/DMSO %) at 10 μM” value in the series with AD38 cells came out at 92%. Moreover, the activity at 10 µM in series [1] worked out at 4.7%.
`O=C(NCc1cnc(C(=O)c2ccccc2)s1)c1ccc2c(c1)NC(=O)c1ccccc1S2(=O)=O` [compound 1929]: in the series on AD38 cells, the “AD38 Viability Normalized Result (cmpd/DMSO %) at 10 μM” value was found to be 93%. The activity at 10 µM in series [1] was determined as 1.2%.
For `O=C1Cc2cccc(-c3ncc(CNC(=O)c4ccc5c(c4)NC(=O)c4ccccc4S5(=O)=O)s3)c2N1` [compound 1930], in the series on AD38 cells, the “AD38 Viability Normalized Result (cmpd/DMSO %) at 10 μM” value was 91%. In series [1], the activity at 10 µM was 23.8%.
For `O=C(NCc1cnc(-c2ccc(NC(=O)C3CC3)cc2)s1)c1ccc2c(c1)NC(=O)c1ccccc1S2(=O)=O` [compound 1931], in that order: 97% and 8.5%.
Regarding `CC(=O)Nc1ccc(-c2ncc(CNC(=O)c3ccc4c(c3)NC(=O)c3ccccc3S4(=O)=O)s2)cc1` [compound 1932], the “AD38 Viability Normalized Result (cmpd/DMSO %) at 10 μM” value with AD38 cells amounted to 101%. The activity at 10 µM in series [1] turned out to be 2.2%.
